Patent US6841567B1, “Cyclic substituted fused pyrrolocarbazoles and isoindolones” (Cephalon, Inc., priority 1999, dated 2005)
pIC50: −log10 of the molar value.

Columns and labels:
[1] = biological target: T1, baculovirus-expressed human trkA cytoplasmic domain (Homo sapiens, UniProt P04629); experiment: Inhibition of trkA tyrosine kinase activity (ELISA-based assay); type: biochemical; conditions: for pIC50: 40 μM ATP; for trkA kinase activity % Inh. @ 300 nM (values in parentheses) / inhibition at 0.3 µM: 300 nM compound; for inhibition at 0.3 µM: read-out: trkA kinase activity % Inh. @ 300 nM (values in parentheses)
T1 construct: baculovirus-expressed human trkA cytoplasmic domain; made in house; host or cells: baculovirus expression system
Experimental: Selected cyclic substituted fused pyrrolocarbazole and isoindolone compounds were tested for their ability to inhibit the kinase activity of baculovirus-expressed human trkA cytoplasmic domain using an ELISA-based assay as previously described (Angeles et al., Anal. Biochem. 236: 49-55, 1996). Briefly, the 96-well microtiter plate was coated with substrate solution (recombinant human phospholipase C-γ1/glutathione S-transferase fusion protein (Rotin et al., EMBO J., 11: 559-567, 1992). Inhibition studies were performed in 100 μl assay mixtures containing 50 mM Hepes, pH 7.4, 40 μM ATP, 10 mM MnCl2, 0.1% BSA, 2% DMSO, and various concentrations of inhibitor. The reaction was initiated by addition of trkA kinase and allowed to proceed for 15 minutes at 37° C. An antibody to phosphotyrosine (UBI) was then added, followed by a secondary enzyme-conjugated antibody, alkaline phosphatase-labelled goat antII-mouse IgG (Bio-Rad). The activity of the bound enzyme was measured via an amplified detection system (Gibco-BRL). Inhibition data were analyzed using the sigimoidal dose-response (variable slope) equation in GraphPad Prism.

[2] = biological target: T2, VEGF receptor (human flk-1, KDR, VEGFR2) kinase domain (Homo sapiens, UniProt P35968); experiment: Inhibition of vascular endothelial growth factor receptor kinase activity (ELISA); type: biochemical; conditions: for pIC50: 40 μM ATP; for inhibition at 0.3 µM: 300 nM compound, read-out: VEGF receptor kinase activity % Inh. @ 300 nM (values in parentheses)
T2 construct: VEGF receptor (human flk-1, KDR, VEGFR2) kinase domain; made in house; host or cells: baculovirus expression system
Experimental: Cyclic substituted fused pyrrolocarbazole and isoindolone compounds were examined for their inhibitory effects on the kinase activity of baculovirus-expressed VEGF receptor (human flk-1, KDR, VEGFR2) kinase domain using the procedure described for the trkA kinase ELISA assay described above. The kinase reaction mixture, consisting of 50 mM Hepes, pH 7.4, 40 μM ATP, 10 mM MnCl2, 0.1% BSA, 2% DMSO, and various concentrations of inhibitor, was transferred to PLC-γ/GST-coated plates. VEGFR kinase was added and the reaction was allowed to proceed for 15 min. at 37 C. Detection of phosphorylated product was accomplished by addition of antII-phosphotyrosine antibody (UBI). A secondary enzymeconjugated antibody was delivered to capture the antibody-phosphorylated PLC-γ/GST complex. The activity of the bound enzyme was measured via an amplified detection system (Gibco-BRL). Inhibition data were analyzed using the sigmoidal dose-response (variable slope) equation in GraphPad Prism.

[3] = biological target: protein kinase C (UBI; mixed isozymes of a, b, g); experiment: Inhibition of protein kinase C activity (Millipore Multiscreen TCA in-plate assay); type: biochemical; conditions: for Protein kinase C activity, values in parentheses: concentration not given
Experimental: Protein kinase C activity was assessed using the Millipore Multiscreen TCA “in-plate” assay as described in Pitt, A. M. and Lee, C. (J. Biomol. Screening, 1: 47-51, 1996). Assays were performed in 96-well Multiscreen-DP plates (Millipore). Each […] assay mixture contained 20 mM Hepes, pH 7.4, 10 mM MgCl2, 2.5 mM EGTA, 2.5 mM CaCl2, […] phosphatidyl serine, […] diolein, […] histone H-1 (Fluka), […] [γ-^32P]ATP, 1.5 ng protein kinase C (UBI; mixed isozymes of a, b, g), 0.1% BSA, 2% DMSO, and test cyclic substituted fused pyrrolocarbazole compound. The reaction was allowed to proceed for 10 min at 37° C., then quenched by adding ice cold 50% trichloroacetic acid. The plates were allowed to equilibrate for 30 min at 4° C., then washed with ice cold 25% TCA. Scintillation cocktail was added to the plates, and the radioactivity was determined using Wallac MicroBeta 1450 PLUS scintillation counter. The IC50 values were calculated by fitting the data to the sigmoidal dose-response (variable slope) equation in GraphPad Prism.

[4] = biological target: T3, trkA (NIH3T3 cells transfected with trkA) (Homo sapiens, UniProt P04629); experiment: Inhibition of NGF-stimulated trk phosphorylation in a whole cell preparation; type: cell-based; design: key to Cell Score @ 100 nM (percent decrease in trk protein band): 0=no decrease; 1=1-25%; 2=26-49%; 3=50-75%; 4=76-100%; conditions: NGF 10 ng/ml; for Cell Score @ 100 nM (percent decrease in trk protein band): 100 nM compound; for Cell Score @ 1 uM (percent decrease in trk protein band): 1 uM compound
T3 construct: expressed in transfected cells; host or cells: NIH3T3
Experimental: NIH3T3 cells transfected with trkA were grown in 100 mm dishes. Subconfluent cells were serum-starved by replacing media with serum-free 0.05% BSA-DMEM containing compound (100 nM and 1 μM) or DMSO (added to controls) for one hour at 37° C. NGF (Harlan/Bioproducts for Science) was then added to the cells at a concentration of 10 ng/ml for 5 minutes. Cells were lysed in buffer containing detergent and protease inhibitors. Clarified cell lysates were normalized to protein using BCA method and immunoprecipitated with antII-trk antibody. Polyclonal antII-trk antibody was prepared against a peptide corresponding to the 14 amino acids at the carboxy terminus of trk (Martin-Zanca et al., Mol. Cell. Biol. 9: 24-33, 1989). The immune complexes were collected on Protein A Sepharose beads (Sigma Chem. Co., St. Lois, Mo.), separated by SDS polyacrylamide gel electrophoresis (SDS-PAGE), and transferred to a polyvinylidene difluoride (PVDF) membrane. The membrane was immunoblotted with antII-phosphotyrosine antibody (UBI), followed by incubation with horseradish peroxidase coupled goat antII-mouse IgG (Bio-Rad Laboratories, Hercules, Calif.). Phosphorylated proteins were visualized using ECL (Arnersham Life Science, Inc., Arlington Heights, Ill.). The area of the trk protein band was measured and compared to NGF-stimulated control. The inhibition scoring system used, based on percent decrease in trk protein band, was as follows: 0=no decrease; 1=1-25%; 2=26-49%; 3=50-75%; 4=76-100%.

[5] = biological target: T4, PDGFβ receptor kinase domain (recombinant human PDGFRβ) (Homo sapiens, UniProt P09619); experiment: Inhibition of platelet derived growth factor receptor kinase activity (ELISA); type: biochemical; conditions: 300 nM compound; read-out: PDGFRβ % inh @ 300 nM (values in parentheses)
T4 construct: kinase activity of baculovirus-expressed PDGFβ receptor kinase domain; made in house; host or cells: baculovirus expression system
Experimental: Cyclic substituted fused pyrrolocarbazole and isoindolone compounds were examined for their inhibitory effects on the kinase activity of baculovirus-expressed PDGFβ receptor kinase domain using the trkA kinase ELISA described above. Assays were performed in substrate (PLC-γ/GST)-coated 96-well microtiter plates. Each 100-μl reaction mixture contained 50 mM HEPES, pH 7.4, 20 μM ATP, 10 mM MnCl2, 0.1% BSA, 2% DMSO, and various concentrations of inhibitor. The reaction was initiated by addition of prephosphorylated recombinant human enzyme (10 ng/ml PDGFRβ) and allowed to proceed for 15 minutes at 37° C. The prephosphorylated enzyme was prepared prior to use by incubation of the kinase in buffer containing 20 μM ATP and 10 mM MnCl2 for 1 hour at 4° C. Detection of phosphorylated product was done by adding horseradish peroxidase (HRP)-conjugated antII-phosphotyrosine antibody (UBI). The HRP substrate solution containing 3,3′-5,5′-tetramethylbenzidine and hydrogen peroxide was later added and the plates were incubated for 10 minutes at room temperature. The reaction was quenched with acid and the resulting absorbance was read at 450 nm using a Microplate Bio-kinetics Reader (Bio-Tek Instrument EL 312e). Inhibition data were analyzed using the sigmoidal dose-response (variable slope) equation in GraphPad Prism.

T2 sequence (P35968 834-1162 limits assumed): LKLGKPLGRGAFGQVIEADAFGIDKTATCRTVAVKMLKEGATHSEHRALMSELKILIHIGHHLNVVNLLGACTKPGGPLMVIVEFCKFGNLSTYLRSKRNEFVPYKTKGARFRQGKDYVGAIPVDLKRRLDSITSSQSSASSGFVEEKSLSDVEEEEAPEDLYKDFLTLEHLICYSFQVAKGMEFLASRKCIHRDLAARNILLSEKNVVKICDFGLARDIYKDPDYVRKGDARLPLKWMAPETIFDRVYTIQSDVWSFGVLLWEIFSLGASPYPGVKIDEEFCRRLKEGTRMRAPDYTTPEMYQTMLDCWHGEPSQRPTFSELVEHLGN
T3 sequence (P04629 33-796, species assumed): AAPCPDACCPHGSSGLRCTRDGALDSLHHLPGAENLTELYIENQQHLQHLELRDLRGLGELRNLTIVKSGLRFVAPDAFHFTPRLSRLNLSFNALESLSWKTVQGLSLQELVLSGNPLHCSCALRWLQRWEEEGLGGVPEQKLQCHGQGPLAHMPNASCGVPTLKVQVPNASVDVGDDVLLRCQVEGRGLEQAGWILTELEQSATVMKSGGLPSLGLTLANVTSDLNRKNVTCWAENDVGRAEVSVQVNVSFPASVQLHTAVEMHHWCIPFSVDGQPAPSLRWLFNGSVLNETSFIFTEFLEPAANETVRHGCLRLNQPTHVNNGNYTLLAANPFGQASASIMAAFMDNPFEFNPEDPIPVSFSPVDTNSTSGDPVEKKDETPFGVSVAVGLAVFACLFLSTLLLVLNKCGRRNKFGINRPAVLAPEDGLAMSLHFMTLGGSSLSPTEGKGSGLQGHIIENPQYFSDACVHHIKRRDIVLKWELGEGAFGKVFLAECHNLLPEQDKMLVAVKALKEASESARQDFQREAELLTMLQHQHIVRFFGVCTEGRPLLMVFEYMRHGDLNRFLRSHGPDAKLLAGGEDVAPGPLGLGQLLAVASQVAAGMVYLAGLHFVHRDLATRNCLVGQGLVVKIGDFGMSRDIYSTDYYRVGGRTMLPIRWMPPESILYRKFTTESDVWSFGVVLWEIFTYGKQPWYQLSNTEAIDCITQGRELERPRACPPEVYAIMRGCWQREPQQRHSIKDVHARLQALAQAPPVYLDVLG
T1 sequence (P04629 440-796 limits assumed): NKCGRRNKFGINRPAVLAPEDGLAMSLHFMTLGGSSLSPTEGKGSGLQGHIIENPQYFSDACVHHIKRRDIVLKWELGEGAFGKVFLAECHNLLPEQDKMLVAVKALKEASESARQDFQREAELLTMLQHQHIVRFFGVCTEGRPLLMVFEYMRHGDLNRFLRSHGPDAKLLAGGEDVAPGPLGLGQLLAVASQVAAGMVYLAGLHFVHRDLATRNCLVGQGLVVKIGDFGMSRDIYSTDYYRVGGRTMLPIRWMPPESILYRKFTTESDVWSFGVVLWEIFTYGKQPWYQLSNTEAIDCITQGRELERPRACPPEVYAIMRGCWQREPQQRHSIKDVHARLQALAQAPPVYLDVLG
T4 sequence (P09619 600-962 limits assumed): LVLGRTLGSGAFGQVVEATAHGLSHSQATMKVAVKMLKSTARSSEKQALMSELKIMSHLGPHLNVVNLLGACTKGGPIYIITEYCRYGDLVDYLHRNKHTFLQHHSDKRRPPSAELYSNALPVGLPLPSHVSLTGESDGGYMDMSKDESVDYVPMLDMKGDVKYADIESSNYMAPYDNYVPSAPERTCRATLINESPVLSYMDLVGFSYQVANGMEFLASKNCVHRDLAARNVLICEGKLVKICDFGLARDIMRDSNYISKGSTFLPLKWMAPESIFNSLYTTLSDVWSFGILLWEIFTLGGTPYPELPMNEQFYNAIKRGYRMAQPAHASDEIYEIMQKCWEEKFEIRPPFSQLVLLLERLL

pIC50 [1]	pIC50 [3]	Cell Score @ 100 nM (percent decrease in trk protein band) [4]	Cell Score @ 1 uM (percent decrease in trk protein band) [4]	Compound	further results
7.36	5.81	1 (1=1-25%)	3 (3=50-75%)	CC1(C)COC(=O)C1(O)C1c2ccccc2-c2c3c(c4c([nH]c5ccccc54)c21)CNC3=O (stereo not drawn) [II-47]	
8.10	5.66	4 (4=76-100%)	4 (4=76-100%)	COc1ccc2c(c1)C(C1(CO)CCCO1)c1c-2c2c(c3c1[nH]c1ccccc13)CNC2=O (stereo not drawn) [II-53]	pIC50 [2]: 6.68
7.70	< 5.00	1 (1=1-25%)	4 (4=76-100%)	O=C1NCc2c1c1c(c3[nH]c4ccccc4c23)C(C2(CO)CCCO2)c2ccccc2-1 (single isomer, unassigned) [II-36]	pIC50 [2]: 6.07
6.82	5.98			O=C1CCC(CO)(C2c3ccccc3-c3c4c(c5c([nH]c6ccccc65)c32)CNC4=O)O1 (stereo not drawn) [II-33]	
6.26				COC(=O)[C@H]1CSC(CCn2c3ccccc3c3c4c(c5c(c32)Cc2ccccc2-5)C(=O)NC4)N1 (stereo partly drawn) [II-67]	inhibition at 0.3 µM [2]: 65%; inhibition at 0.3 µM [5]: 23%
7.57		2 (2=26-49%)	3 (3=50-75%)	COCCOC(=O)c1ccc2[nH]c3c4c(c5c(c3c2c1)CNC5=O)-c1ccccc1C4C1CCC(OCCOC)O1 (stereo not drawn) [II-52]	inhibition at 0.3 µM [5]: 45%
6.39	< 5.00	2 (2=26-49%)	2 (2=26-49%)	O=C1NCc2c1c1c(c3[nH]c4ccccc4c23)C(C2CCC(O)O2)c2ccccc2-1 (single isomer, unassigned) [II-38]	pIC50 [2]: 5.29
7.11	< 5.00	0	3 (3=50-75%)	O=C1NCc2c1c1c(c3[nH]c4ccccc4c23)C(C2(CO)CCCO2)c2ccccc2-1 (single isomer, unassigned) [II-35]	inhibition at 0.3 µM [2]: 55%
7.80	5.68	0	4 (4=76-100%)	O=C1NCc2c1c1c(c3[nH]c4ccccc4c23)C(C2(C(O)CO)CCCO2)c2ccccc2-1 (stereo not drawn) [II-29]	
7.35	5.68	2 (2=26-49%)	4 (4=76-100%)	CC1(C2c3ccccc3-c3c4c(c5c([nH]c6ccccc65)c32)CNC4=O)CC(O)(CO)CO1 (stereo not drawn) [II-26]	inhibition at 0.3 µM [2]: 48%
7.82	< 5.00	2 (2=26-49%)	4 (4=76-100%)	O=C1NCc2c1c1c(c3[nH]c4ccccc4c23)C(C2(CO)CCCO2)c2ccccc2-1 (stereo not drawn) [II-21]	

Continued, compound first:

Compound	pIC50 [1]	pIC50 [3]	Cell Score @ 100 nM (percent decrease in trk protein band) [4]	Cell Score @ 1 uM (percent decrease in trk protein band) [4]	further results
O=C1NCc2c1c1c(c3[nH]c4ccccc4c23)C(C2(O)CCCO2)c2ccccc2-1 (stereo not drawn) [II-42]	6.83	5.21			pIC50 [2]: 5.86
O=C1NCc2c1c1c(c3c2c2ccccc2n3CC2CCCOC2)Cc2ccccc2-1 (racemic) [II-63]					trkA kinase activity % Inh. @ 300 nM (values in parentheses) [1]: (28) %; Protein kinase C activity, values in parentheses [3]: (28)
CC1(C2c3ccccc3-c3c4c(c5c([nH]c6ccccc65)c32)CNC4=O)CCCO1 (racemic) [II-04]	8.10	< 5.00	1 (1=1-25%)	2 (2=26-49%)	
CN1CCC(O)(C2c3ccccc3-c3c4c(c5c([nH]c6ccccc65)c32)CNC4=O)CC1 (stereo not drawn) [II-10]	6.74	5.80			
COCCOCc1ccc2c(c1)c1c3c(c4c(c1n2CC1CO1)Cc1ccccc1-4)C(=O)NC3 (racemic) [II-61]		5.87			
O=C1NCc2c1c1c(c3[nH]c4ccccc4c23)C(C2(O)CCc3ccccc3C2)c2ccccc2-1 (stereo not drawn) [II-15]		< 5.00			inhibition at 0.3 µM [1]: 26%
O=C1NCc2c1c1c(c3[nH]c4ccccc4c23)C(C2(O)CCN(Cc3ccccc3)CC2)c2ccccc2-1 (stereo not drawn) [II-02]	7.19	5.12			
O=C1NCc2c1c1c(c3c2c2ccccc2n3CC2CCCCO2)Cc2ccccc2-1 (racemic) [II-62]					trkA kinase activity % Inh. @ 300 nM (values in parentheses) [1]: (27) %; Protein kinase C activity, values in parentheses [3]: (27)
O=C1NCc2c1c1c(c3[nH]c4ccccc4c23)C(C2(O)CCOCC2)c2ccccc2-1 (stereo not drawn) [II-03]	7.14	5.39			
O=C1NCc2c1c1c(c3[nH]c4ccccc4c23)C(C2(O)CCSCC2)c2ccccc2-1 (stereo not drawn) [II-14]		< 5.00			inhibition at 0.3 µM [1]: 32%
O=C1NCc2c1c1c(c3[nH]c4ccccc4c23)C(C2CCCO2)c2ccccc2-1 (stereo not drawn) [II-07]	7.72	5.15	1 (1=1-25%)	2 (2=26-49%)	
